Experimental data as given in patent US6974791B2, “Endothelial specific targeting” (The University of Pittsburgh, priority 2000, dated 2005).
Entries after “also recorded” stand apart in the source; their conditions may differ. Where no end group is shown, it is not given here.

How the values were obtained:
[1] = system: vessels in human xenograft PC-3 (prostate carcinoma) tumors; assay: in vivo binding of intravenously injected peptide in PC-3 tumor-bearing mice (fluorescence microscopy of frozen sections); parameters: species or system mouse; conditions: for binding to vessels in the tumors (tumor cross-sections): five i.v. (tail vein) injections of 1 ng/mouse at one hour intervals
Method: (§1) Additionally, in vivo experiments with the prototype peptide, SEQ ID NO 3, which stained the brightest in the in vitro experiments described above, were conducted using several different assays as described below. In one in vivo assay, tumor-bearing mice were injected five times intravenously (tail vein) with 1 ng/mouse at one hour intervals. The mice were sacrificed 15 minutes after the final injection, the tumors and other normal tissues (lung, heart, muscle) were taken for fresh frozen sectioning (i.e., embedded in OCT medium and frozen) and for evaluation via fluorescence microscopy. […] Although these peptides were generated from TDEC originating from the murine SCC tumor, SEQ ID NO 3 also bound to the endothelium from a human xenograft model.
The specificity of SEQ ID NO 3 for endothelial vessels is illustrated in FIG. 7. In this experiment, PC-3 tumor-bearing mice were injected (as described above) with positive control poly-L-lysine, negative control SEQ ID NO 8 Pen G7 and peptide SEQ ID NO 3. FIG. 7A, 7B and 7C are micrographs illustrating cross-sections of PC-3 tumor from tumor-bearing mice that were injected with peptides. In each figure, the gray diamond indicates the location of the lumen of the blood vessel.

[2] = system: tumor-derived endothelial cells (TDEC); assay: in vitro binding of FITC-conjugated peptides to TDEC monolayers (fluorescent microscopy), NIH3T3 as negative control monolayer; type: cell-based, mouse; conditions: peptide 5 μg/ml overnight at 37° C. in PBS with 10% FCS; TDEC vs NIH3T3 monolayers
Method: Tumors were established by subcutaneous injection of 5×10^6 SCC VII cells per C3H/HeJ mouse. After a tumor had achieved a diameter of 0.5 cm to 1.0 cm and before any evidence of central necrosis, it was removed sterilely, minced, and digested with collagenases and RNAses to yield a single cell suspension. The cells were then stained using antibody for PECAM-1. The stained cells were sorted using automated flow cytometry and the positive cells were cultured as TDECs in Po Media [DMEM supplemented with 20% Sarcoma-180 conditioned media, 10% Fetal Calf Serum, 1% BME vitamin, 1% heparin, and 0.005% endothelial cell growth supplement (Collaborative Research)].
Evidence for specific binding of oligopeptides to TDEC was accomplished as follows. The most frequently repetitive sequences obtained from the 100 clones were used for synthesis of oligopeptides (Sigma Genesis). By conjugating fluorescein isothiocynate ([…]) to the carboxyl termini of peptides, these molecules were tested for in vitro binding with TDECs and NIH3T3 cells (negative control cell line). These peptides contained flanking cysteines so that a disulfide loop may be reformed, thus constraining and mimicking the binding condition of the initial selection process. […]

[3] = system: human soft tissue sarcoma and prostate carcinoma tumor sections (endothelium); assay: triple staining of fresh frozen human tumor sections with FITC-tagged peptide, anti-Factor VIII antibody and nuclear stain; type: binding; conditions: fresh frozen sections snap fixed in paraformaldehyde
Method: The ability of novel peptide motifs of the present invention to cross-react with tissues from different sources was tested using human samples from a pathologist-diagnosed soft tissue sarcoma and a prostate carcinoma. Fresh frozen tumor sections were snap fixed in paraformaldehyde, and then triple stained for fluorescence microscopic analysis, the results of which are shown in FIG. 8. The staining included: a stain for cell nuclei, and anti-Factor VIII antibody (secondary antibody labeled with Cy3 red fluorescent probe), and peptide SEQ ID NO 3 (tagged with FITC, green upon fluorescence). […] Factor VIII staining is specific for endothelial cells which produce and store the Factor VIII blood factor.

[4] = system: vessels in murine SCC (squamous cell) tumors; assay: in vivo binding of intravenously injected peptide in tumor-bearing mice, murine SCC tumor model (fluorescence microscopy of frozen sections); parameters: species or system mouse
Method: as §1

| Substance | binding to vessels in the tumors (tumor cross-sections) [1] | staining / binding specificity of FITC-labeled peptide for TDEC [2] | distribution of staining in PC-3 tumor cross-section ([1]; after i.v. injection, FIG. 7C) | binding to vessels of normal tissues ([1]; lung, heart, muscle, five i.v. injections of 1 ng/mouse) | staining of human tumor sections relative to Factor VIII-positive (vascularized) regions [3] | binding to vessels of normal tissues ([4]; murine SCC tumor-bearing mice, lung, heart, muscle, five i.v. injections of 1 ng/mouse) | binding to vessels in the tumors ([4]; murine SCC tumor, five i.v. (tail vein) injections of 1 ng/mouse at one hour intervals, sacrifice 15 minutes after final injection) |
| --- | --- | --- | --- | --- | --- | --- | --- |
| poly-L-lysine [reference compound] | not only bound to the cells of the blood vessel, but also diffused through the intercellular space |  |  |  |  |  |  |
| CGGRRLGGC (cysteine pairing not given here) [SEQ ID NO 3] | preferential binding; also recorded: intense binding to the cells of the vessel | brightest staining and specificity for TDEC; also recorded: highest in vitro binding specificity to TDEC | limited to the blood vessel wall | no binding to the vessels of normal tissues | observed primarily in the regions of the tissue that were vascularized | no binding to the vessels of normal tissues | preferential binding |
| CGGGGGGGC (cysteine pairing not given here) [SEQ ID NO 8 Pep G7, negative control peptide, seven glycine residues flanked by cysteines, reference compound] | no binding activity |  |  |  |  |  |  |
| CGGRKLGGC (cysteine pairing not given here) [SEQ ID NO 2] |  | preferential staining for TDEC; also recorded: some binding specificity to TDEC |  |  |  |  |  |
